From patent US12194036B2 (priority 2022, dated 2025)

Legend:
[1] = Pharmacokinetics after administration of the subject combination; conditions: for AUC0-12 relative to that of bupropion / Cmax relative to peak level of bupropion: metabolite vs bupropion, after the subject combination
[2] = Effect of CYP2D6 poor metabolizer status on pharmacokinetics of the tablet (Group 3); conditions: compared to patients who are not CYP2D6 poor metabolizers
[3] = Food effect on pharmacokinetics of the subject combination; conditions: subject combination administered with food
plasma protein = assay: Plasma protein binding; format: in vitro ADME; conditions: metabolite vs bupropion

CC(NC(C)(C)C)C(=O)c1cccc(Cl)c1 (racemic) [bupropion]
mean elimination half-life ([1]; human, plasma, oral): 15 h

COc1ccc2c(c1)[C@]13CCCC[C@@H]1[C@H](C2)N(C)CC3 [dextromethorphan]
increase of mean elimination half-life ([1]; 8 days of subject combination in extensive metabolizers, compared to dextromethorphan given without bupropion): approximately 3 fold
pharmacokinetics at steady state (linearity) ([1]; co-administered with bupropion): nonlinear pharmacokinetics
changes in AUC and Cmax at steady state with dose ([1]; varying doses of bupropion (75 to 150 mg), co-administered with bupropion): less than dose-proportional changes
changes in AUC and Cmax at steady state with dose ([1]; varying doses of dextromethorphan (30 to 60 mg), co-administered with bupropion): greater than dose-proportional changes
plasma concentrations in CYP2D6 poor metabolizers [2]: increases plasma concentrations
AUC0-12 decrease with food [3]: 14%

CC(NC(C)(C)C)C(O)c1cccc(Cl)c1 (centres unmarked) [erythrohydroxybupropion]
AUC0-12 relative to that of bupropion [1]: about 1.2 times
Cmax relative to peak level of bupropion [1]: approximately equal to

C[C@H]1NC(C)(C)CO[C@]1(O)c1cccc(Cl)c1 [hydroxybupropion]
AUC0-12 relative to that of bupropion [1]: about 19 times
Cmax relative to peak level of bupropion [1]: approximately 14 times

C[C@H](NC(C)(C)C)[C@@H](O)c1cccc(Cl)c1 [threohydroxybupropion]
AUC0-12 relative to that of bupropion [1]: about 7 times
Cmax relative to peak level of bupropion [1]: about 5 times
extent of protein binding compared with bupropion (plasma protein): about half that seen with bupropion
